Test results from patent US7547709B2, “Chain-breaking antioxidants” (Vanderbilt University, priority 2004, dated 2009).
Like-named read-outs stand apart in the source and are kept apart here. Marks after values point to notes of the source that are not given here.

Experiments:
[1] = for O—H BDE, absolute measured value (±2 SD): EPR equilibration; for O—H BDE, absolute measured value (±2 SD) / Experimental substituent effect on O—H BDE, 5-pyrimidinols (vi): solution phase; for O—H BDE: O—H bond dissociation enthalpy: Table A; for Experimental substituent effect on O—H BDE, 5-pyrimidinols (vi): 298 K, relative to unsubstituted (vi)
[2] = for k/alkyl: second order rate constant for reaction with alkyl radicals: Table A
[3] = Reaction with peroxyl radicals, oxygen consumption in inhibited autoxidation of styrene; assay type: physicochemical; conditions: for Rate constants with peroxyl radicals, pyrimidinol versus phenolic counterpart: (vi)/(iv) pair; for k/peroxyl: second order rate constant for reaction with peroxyl radicals: Table A; for Rate constant for reaction with peroxyl radicals: benzene, 323 K
[4] = open atmosphere
[5] = Burton et al. 1985; cited from earlier work
[6] = solution phase, 298 K, from ref 2C, cited from earlier work; for Experimental substituent effect on O—H BDE, phenols (iv): relative to unsubstituted (iv)
[7] = benzene, 298 K, reported in ref 12, cited from earlier work
[8] = set-up: key: Not an air-stable compound; conditions: Table 2, column (iv); cited from earlier work

Oc1cncnc1 [Example 1, 5-Pyrimidinol]
O—H BDE: O—H bond dissociation enthalpy (estimate) ([1]; Estimate based upon other results to date for other 5-pyrimidinols): 91.3^a
k/alkyl: second order rate constant for reaction with alkyl radicals [2]: 3.6 × 10^6

Cc1nc(C)c(O)c(C)n1 [Example 2, 2,4,6-Trimethyl-5-pyrimidinol]
O—H BDE, absolute measured value (±2 SD) [1]: 85.2 ± 0.5 kcal/mol
O—H BDE: O—H bond dissociation enthalpy [1]: 85.2
Experimental substituent effect on O—H BDE, 5-pyrimidinols (vi) [1]: -5.9 kcal/mol
k/alkyl: second order rate constant for reaction with alkyl radicals [2]: 4.6 × 10^5
Rate constant for reaction with alkyl radicals (estimate) ([2]; benzene, 298 K, neophyl clock (N), estimate from correlations of k and β for CH3CN, EtOAc, t-BuOH): 4.6 × 10^5 (N)^c,d M^−1 s^−1
Deuterium kinetic isotope effect (kH/kD), alkyl radicals ([2]; dry solvents containing D2O): 3.1
Rate constants with peroxyl radicals, pyrimidinol versus phenolic counterpart [3]: ≤ 3
k/peroxyl: second order rate constant for reaction with peroxyl radicals [3]: 3.3 ± 0.4 × 10^4
Rate constant for reaction with peroxyl radicals [3]: 3.3 ± 0.4 × 10^4 M^−1 s^−1

Cc1nc(C(C)(C)C)c(O)c(C(C)(C)C)n1 [Example 3, 2-Methyl-4,6-di-tert-butyl-5-pyrimidinol]
O—H BDE, absolute measured value (±2 SD) [1]: 84.10 ± 0.25 kcal/mol
O—H BDE: O—H bond dissociation enthalpy [1]: 84.1
Experimental substituent effect on O—H BDE, 5-pyrimidinols (vi) [1]: -7.0 kcal/mol
k/alkyl: second order rate constant for reaction with alkyl radicals [2]: 3.2 ± 0.5 × 10^4
Rate constant for reaction with alkyl radicals ([2]; benzene, 298 K, neophyl radical clock (N)): 3.2 ± 0.5 × 10^4 (N) M^−1 s^−1
Rate constants with peroxyl radicals, pyrimidinol versus phenolic counterpart [3]: roughly the same
k/peroxyl: second order rate constant for reaction with peroxyl radicals [3]: 2.2 ± 0.3 × 10^4
Rate constant for reaction with peroxyl radicals [3]: 2.2 ± 0.3 × 10^4 M^−1 s^−1

COc1nc(C)c(O)c(C)n1 [Example 4, 2-Methoxy-4,6-dimethyl-5-pyrimidinol]
O—H BDE: O—H bond dissociation enthalpy [1]: 82.5

Cc1nc(N(C)C)nc(C)c1O [Example 5, 2-N,N-Dimethylamino-4,6-dimethyl-5-pyrimidinol]
O—H BDE, absolute measured value (±2 SD) [1]: 78.16 ± 0.25 kcal/mol
O—H BDE: O—H bond dissociation enthalpy [1]: 78.2
O—H BDE difference versus a-TOH, experiment ([1]; relative to a-TOH): -0.1 kcal/mol
Experimental substituent effect on O—H BDE, 5-pyrimidinols (vi) [1]: -12.9 kcal/mol
k/alkyl: second order rate constant for reaction with alkyl radicals [2]: 2.9 ± 1.1 × 10^6
Rate constant for reaction with alkyl radicals ([2]; benzene, 298 K, 5-hexenyl radical clock (H)): 2.9 ± 1.1 × 10^6 (H) M^−1 s^−1
Rate of reaction with alkyl radicals relative to α-TOH ([2]; versus α-TOH): 5 times
k/peroxyl: second order rate constant for reaction with peroxyl radicals [3]: 8.6 ± 0.5 × 10^6
Rate constant for reaction with peroxyl radicals [3]: 8.6 ± 0.5 × 10^6f M^−1 s^−1
Deuterium kinetic isotope effect (kH/kD), peroxyl radicals ([3]; dry solvents containing D2O): 3.1
Stability to air oxidation, in words [4]: without degradation by air oxidation

CCN1CCCc2c(C)c(O)c(C)c(C)c21 [Formula 3b]
Reactivity with peroxyl radicals compared to tocopherol, in words [5]: react slowly with peroxyl radicals

Oc1ccccc1 [iv, phenol]
O—H BDE of unsubstituted phenol, absolute value [6]: (88.3) kcal/mol

Cc1cc(C)c(O)c(C)c1 [iv-b]
Experimental substituent effect on O—H BDE, phenols (iv) [6]: -5.6 kcal/mol
Rate constant for reaction with alkyl radicals ([7]; neophyl clock (N)): 8.5 ± 0.2 × 10^4 (N)^e M^−1 s^−1
Rate constant for reaction with peroxyl radicals [3]: 1.1 ± 0.1 × 10^5 M^−1 s^−1

Cc1cc(C(C)(C)C)c(O)c(C(C)(C)C)c1 [iv-c]
Experimental substituent effect on O—H BDE, phenols (iv) [6]: -7.3 kcal/mol
Rate constant for reaction with alkyl radicals ([7]; neophyl clock (N)): 4.8 ± 1.5 × 10^3 (N)^e M^−1 s^−1
Rate constant for reaction with peroxyl radicals [3]: 1.8 ± 0.3 × 10^4 M^−1 s^−1

Cc1cc(N(C)C)cc(C)c1O [iv-d]
Air stability, footnote letter in place of O—H BDE [8]: d

α-tocopherol [a-TOH (1)]
Experimental substituent effect on O—H BDE, phenols (iv) [6]: −10.0^c kcal/mol
Rate constant for reaction with alkyl radicals ([7]; 5-hexenyl clock (H)): 6.0 ± 1.5 × 10^5 (H)^e M^−1 s^−1
Rate constant for reaction with peroxyl radicals [3]: 4.1 ± 0.4 × 10^6 M^−1 s^−1
